Assay [1] concerns Plasmodium falciparum. Briefly: microbe, parasite or virus in culture. The following applies: 7G8, 3 h.
For assay [2], the system named is Plasmodium falciparum. Kind of assay: Antiplasmodial activity against chloroquine-resistant Plasmodium falciparum 7G8 harboring parental pfcrt allele infected in erythrocytes assessed as [3H]hypoxanthine incorporation in presence of dihydroartimisinin. It counts as functional.
In assay [3] the test system is Plasmodium falciparum. Briefly: Selectivity ratio of IC50 for chloroquine-resistant Plasmodium falciparum C3 harboring Dd2 pfcrt allele to IC50 for chloroquine-sensitive Plasmodium falciparum C2. It counts as functional.
The subject of assay [4] is Plasmodium falciparum. Kind of assay: Antiplasmodial activity against chloroquine-sensitive Plasmodium falciparum D10 infected in erythrocytes assessed as [3H]hypoxanthine incorporation in presence of dihydroartimisinin. It counts as functional.
In assay [5] the test system is Plasmodium falciparum. Briefly: microbe, parasite or virus in culture. The conditions noted are these: C6, 3 h.
Assay [6] has as its system Plasmodium falciparum. Kind of assay: Antiplasmodial activity against chloroquine-resistant Plasmodium falciparum 7G8 infected in erythrocytes assessed as [3H]hypoxanthine incorporation in presence of dihydroartimisinin. It counts as functional.
The subject of assay [7] is Plasmodium falciparum. Briefly: Antiplasmodial activity against chloroquine-sensitive Plasmodium falciparum C2 infected in erythrocytes assessed as [3H]hypoxanthine incorporation in presence of dihydroartimisinin. It counts as functional.
Assay [8] relates to Plasmodium falciparum. Kind of assay: microbe, parasite or virus in culture. The conditions noted are these: D10, 3 h.
The subject of assay [9] is Plasmodium falciparum. Kind of assay: Antiplasmodial activity against chloroquine-resistant Plasmodium falciparum K1 infected in erythrocytes assessed as [3H]hypoxanthine incorporation in presence of dihydroartimisinin. The format is functional.
In assay [10] the test system is Plasmodium falciparum. Kind of assay: Antiplasmodial activity against chloroquine-resistant Plasmodium falciparum C6harboring 7G8 pfcrt allele infected in erythrocytes assessed as [3H]hypoxanthine incorporation in presence of dihydroartimisinin. It counts as functional, C6.
The subject of assay [11] is Plasmodium falciparum. Briefly: microbe, parasite or virus in culture. The conditions noted are these: TM6, 3 h.
For assay [12], the system named is Plasmodium falciparum. Briefly: Antiplasmodial activity against chloroquine-resistant Plasmodium falciparum C3 harboring Dd2 pfcrt allele infected in erythrocytes assessed as [3H]hypoxanthine incorporation in presence of dihydroartimisinin. It counts as functional.
Assay [13] deals with Plasmodium falciparum. Kind of assay: Antiplasmodial activity against chloroquine-sensitive Plasmodium falciparum D10 harboring 7G8 pfcrt allele infected in erythrocytes assessed as [3H]hypoxanthine incorporation in presence of dihydroartimisinin. It counts as functional.
Assay [14] deals with Plasmodium falciparum. Kind of assay: Antiplasmodial activity against chloroquine-resistant Plasmodium falciparum TM6 infected in erythrocytes assessed as [3H]hypoxanthine incorporation in presence of dihydroartimisinin. The format is functional.
For assay [15], the system named is Plasmodium falciparum. Briefly: microbe, parasite or virus in culture. The conditions noted are these: 3D7, 3 h.
The subject of assay [16] is Plasmodium falciparum. Briefly: microbe, parasite or virus in culture. The following applies: C2, 3 h.
The test system of assay [17] is Plasmodium falciparum. Briefly: Antiplasmodial activity against chloroquine-resistant Plasmodium falciparum 7G8 harboring D10 pfcrt allele infected in erythrocytes assessed as [3H]hypoxanthine incorporation in presence of dihydroartimisinin. It counts as functional.
Assay [18] deals with Plasmodium falciparum. Kind of assay: microbe, parasite or virus in culture. The conditions noted are these: K1, 3 h.
The subject of assay [19] is Plasmodium falciparum. Briefly: Antiplasmodial activity against chloroquine-sensitive Plasmodium falciparum 3D7 infected in erythrocytes assessed as [3H]hypoxanthine incorporation in presence of dihydroartimisinin. It counts as functional.
Assay [20] deals with Plasmodium falciparum. Briefly: microbe, parasite or virus in culture. The following applies: C3, 3 h.
For assay [21], the system named is Plasmodium falciparum. Kind of assay: microbe, parasite or virus in culture. The following applies: 7G8, 3 h. The source holds these as a separate data set.
For assay [22], the system named is Plasmodium falciparum. Kind of assay: microbe, parasite or virus in culture. The conditions noted are these: 7G8, 3 h. This is another data set of the same source.
Assay [23] has as its system Plasmodium falciparum. Briefly: Antiplasmodial activity against chloroquine-resistant Plasmodium falciparum K1 infected in erythrocytes assessed as [3H]hypoxanthine incorporation in presence of piperaquine. The format is functional.
Assay [24] relates to Plasmodium falciparum. Kind of assay: Antiplasmodial activity against chloroquine-resistant Plasmodium falciparum 7G8 harboring D10 pfcrt allele infected in erythrocytes assessed as [3H]hypoxanthine incorporation in presence of piperaquine. The format is functional.
The subject of assay [25] is Plasmodium falciparum. Kind of assay: Antiplasmodial activity against chloroquine-resistant Plasmodium falciparum 7G8 harboring parental pfcrt allele infected in erythrocytes assessed as [3H]hypoxanthine incorporation in presence of piperaquine. It counts as functional.
The subject of assay [26] is Plasmodium falciparum. Briefly: Antiplasmodial activity against chloroquine-resistant Plasmodium falciparum 7G8 infected in erythrocytes assessed as [3H]hypoxanthine incorporation in presence of piperaquine. The format is functional.
The subject of assay [27] is Plasmodium falciparum. Kind of assay: Antiplasmodial activity against chloroquine-resistant Plasmodium falciparum C6harboring 7G8 pfcrt allele infected in erythrocytes assessed as [3H]hypoxanthine incorporation in presence of piperaquine. The format is functional, C6.
The subject of assay [28] is Plasmodium falciparum. Briefly: Antiplasmodial activity against chloroquine-resistant Plasmodium falciparum TM6 infected in erythrocytes assessed as [3H]hypoxanthine incorporation in presence of piperaquine. The format is functional.
Assay [29] has as its system Plasmodium falciparum. Briefly: microbe, parasite or virus in culture. The following applies: D10, 3 h. This is another data set of the same source.
For assay [30], the system named is Plasmodium falciparum. Kind of assay: Antiplasmodial activity against chloroquine-sensitive Plasmodium falciparum 3D7 infected in erythrocytes assessed as [3H]hypoxanthine incorporation in presence of piperaquine. It counts as functional.
Assay [31] deals with Plasmodium falciparum. Kind of assay: Antiplasmodial activity against chloroquine-sensitive Plasmodium falciparum D10 harboring 7G8 pfcrt allele infected in erythrocytes assessed as [3H]hypoxanthine incorporation in presence of piperaquine. It counts as functional.

In general, IC50 refers to the concentration at which inhibition is half-maximal. As for `Clc1ccc2c(N3CCN(CCCN4CCN(c5ccnc6cc(Cl)ccc56)CC4)CC3)ccnc2c1` [PIPERAQUINE], the IC50 in [1] worked out at 9.1 nM; in [5], 6.6 nM; in assay [8], 8.1 nM; in [11] it was 15.8 nM; in assay [15], 3.4 nM; in [16], 3.9 nM. Further, the IC50 in assay [18] turned out to be 13.4 nM; in assay [20], 11.5 nM; in assay [21], 11.2 nM; in assay [22] it was 12 nM. Also, the “fractional inhibitory concentration index (FICI)” value in assay [2] amounted to 0.8; in assay [4], 1.48; in assay [6], 2.86; in assay [7] it was 1.59; in assay [9], 1.27; in [10] it was 2.51. In addition, the “fractional inhibitory concentration index (FICI)” value in assay [12] is 1.7; in assay [13] it was 1.34; in assay [14] it was 1.25; in assay [17] it was 1.34; in assay [19], 2.4. Further, the “fold change (FC)” value in assay [3] turned out to be 3.

As to `C[C@H]1[C@@H](O)O[C@@H]2O[C@@]3(C)CC[C@H]4[C@H](C)CC[C@@H]1[C@@]24OO3` [ARTENIMOL], the IC50 in [1] was found to be 0.6 nM; in assay [29], 0.7 nM; in assay [5], 0.3 nM; in [8], 0.7 nM; in assay [11] it was 1 nM; in assay [15], 0.6 nM. The IC50 worked out at 0.8 nM in assay [16]; 1 nM in assay [18]; 1 nM in assay [20]; 1.3 nM in [21]; 1.3 nM in assay [22]. Also, the “fractional inhibitory concentration index (FICI)” value was determined as 1.27 in assay [23]; 1.34 in assay [24]; 0.8 in assay [25]; 2.86 in [26]; 2.51 in assay [27]; 1.25 in [28]. The entries for the “fractional inhibitory concentration index (FICI)” value in assay [30] and in [31] were 2.4 and 1.34, respectively.
